Assay results reported in patent US20140179779A1, “Deuterium Substituted Fumarate Derivatives” (Biogen IDEC MA Inc., priority 2012, published 2014).
Counter-ions that a name gives are not always drawn.

How the values were obtained:
[1] = test system: patients with relapsing-remitting MS (RRMS); conditions: compared with placebo after two years of treatment; cited from earlier work
Nrf2 [2] = test: Nrf2 activation in DLD-1 ARE-luciferase reporter cell line; type: cell-based, Human
Procedure: (§1) Human cancer cell line DLD-1 and breast cancer cell line MCF7 reporter stable cell lines were generated by transfection with a firefly luciferase reporter construct harboring the luciferase cDNA cloned downstream of eight catenated copies of the antioxidant response element ([…] ID NO.:1). See Wang et al. Cancer Res. 2006; 66:10983-94. To measure Nrf2 activation in the ARE-luciferase reporter cell lines, the cells were plated in 96-well plates at 20-50 k cells/well 24 hours prior to stimulation with the test compounds. […] The reporter cells were harvested 24 hours-48 hours after addition of the compounds and lysed for detection of luciferase activity. Luciferase activity in the lysates was monitored using the Bright-Glo Luciferase Assay System of Promega and Tecan Genios Pro plate reader. Luciferase induction in the compound-treated cells was calculated as fold change over the baseline activity detected in control cultures treated with DMSO-containing media.

Nrf2 [3] = test: Nrf2 activation in MCF-7 ARE-luciferase reporter cell line; type: cell-based, Human
Procedure: as §1

[4] = DLD-1/ARE-E2, 24 hr Stimulation
[5] = DLD-1/ARE-E2, 48 hr Stimulation
[6] = MCF-7/ARE-D3, 24 hr Stimulation
[7] = MCF-7/ARE-D3, 48 hr Stimulation

| Compound | clinical relapses, accumulation of disability progression, and lesion number and volume [1] | Maximum Nrf2 Activation Fold Change (Nrf2 [2]; [4]) | concentration at maximum fold change (@ [uM]) (Nrf2 [2]; [4]) | Maximum Nrf2 Activation Fold Change (Nrf2 [2]; [5]) | concentration at maximum fold change (@ [uM]) (Nrf2 [2]; [5]) | Maximum Nrf2 Activation Fold Change (Nrf2 [3]; [6]) | concentration at maximum fold change (@ [uM]) (Nrf2 [3]; [6]) | Maximum Nrf2 Activation Fold Change (Nrf2 [3]; [7]) | concentration at maximum fold change (@ [uM]) (Nrf2 [3]; [7]) |
| --- | --- | --- | --- | --- | --- | --- | --- | --- | --- |
| COC(=O)/C=C/C(=O)OC [DMF, dimethyl fumarate] | significantly reduced | – | – | – | – | – | – | – | – |
| COC(=O)/C=C/C(=O)O [MMF, monomethyl fumarate] | – | 5 fold | 1000 µM | 12 fold | 1000 µM | 75 fold | 1000 µM | 94 fold | 750 µM |
| O=C(O)/C=C/C(=O)O.[2H]C([2H])([2H])OC(=O)/C=C/C(=O)O [Example 2, (^2H3)methyl fumaric acid ester] | – | 6 fold | 1000 µM | 14 fold | 1000 µM | 55 fold | 1000 µM | 81 fold | 1000 µM |
